Test results from article PMC7247818, “Demonstration of Binding Induced Structural Plasticity in a SH2 Domain” (Frontiers in Molecular Biosciences, 2020).
Where a SMILES comes first, the peptide text is derived from it.

Tests used:
Conditions in all cases: 10°C
[1] = target: T1, N-SH2 domain of PI3K, I62V variant (Homo sapiens, UniProt P27986, I383V); assay: Stopped-flow binding kinetics, N-SH2 I62V
T1 construct: made in house
Protocol: (§1) N-SH2 wild-type and all the site-directed variants were expressed and purified as described previously ([Visconti et al., 2019]). All the mutants were obtained using a QuickChange Lightning Site-Directed Mutagenesis kit (Agilent technologies), accordingly to manufacturer instructions. Peptides with sequence TNSEDNpYVPMNPG mimicking wild-type Gab2 and TNSEDNpYVPANPG mimicking the M457A variant of Gab2 were purchased from GenScript Biotech Corporation.
(§2) Binding kinetics experiments were performed using a single-mixing SX-18 stopped-flow instrument (Applied Photophysics); all binding experiments were conducted in 50 mM Hepes pH 7.4 300 mM NaCl at 10°C. Excitation was at 280 nm and emission was collected using a […] cut-off glass filter. Pseudo-first order binding experiments were performed mixing a constant concentration of dansylated Gab2_448–460 and Gab2_448–460 M457A (1 μM) vs. N-SH2 wt and its mutants at concentrations ranging from […]. For each N-SH2 concentration, usually 5 individual traces were averaged and in all cases the fluorescence time courses obtained was satisfactorily fitted by using a single exponential equation.
(§3) One of the aims of this study is to depict the molecular details of the interaction between the N-SH2 domain of PI3K and Gab2. A powerful strategy to achieve this goal relies on perturbing the system by producing conservative site-directed variants while monitoring the effect of mutations on the association and dissociation rate constants between the interacting partners (kon and koff respectively). Thus, we designed and successfully produced 21 site-directed variants of the N-SH2 domain and challenged them vs. a peptide mimicking the region of Gab2 ranging from residue 448–460 (Gab2_448–460), containing the pY-X-X-M motif that is specifically recognized by the N-SH2 domain ([Waksman et al., 1992]; [Songyang et al., 1993]). The choise of mutations was designed in analogy to phi-value analysis methodology in protein folding studies ([Fersht and Sato, 2004]). […] To monitor binding by fluorescence, a dansyl group was added at the N-terminus of the peptide. The binding reaction was monitored by stopped-flow experiments following the change in FRET signal, taking advantage of the two Trp residues on the N-SH2 domain in positions 12 and 14 as fluorescence donor and the dansyl group on Gab2_448–460 as acceptor. The experiments were performed in pseudo-first order conditions with Gab2_448–460 at fixed concentration of 1 μM rapidly mixed vs. large excess of N-SH2 wt and its variants, ranging from 4 to 14 μM, in buffer Hepes 50 mM, NaCl 300 mM, pH 7.4, at 10°C.
(§4) with kon being the slope of the line and koff the intercept with the y-axis. Since indirect calculation of koff obtained by extrapolation is associated with high experimental error, we performed displacement experiments to directly measure koff by challenging a pre-incubated complex of dansylated Gab2_448–460 and N-SH2 domain both at the concentration of 1 μM vs. a large excess of non-dansylated Gab2_448–460 (50 μM). Kinetic parameters extracted from data together with the calculated changes in activation and equilibrium free energies are reported in Table 1. Analysis of kinetic data highlights that T48S, L51A, and L59A variations cause a detectable decrease of the affinity of the domain for Gab2_448–460 of ∼10-fold, affecting both the kon and koff. […] Since L99 residue is part of the binding pocket, this dramatic effect on the binding affinity is expected.
(§5) SH2 domains bind ligands with a phosphorylated tyrosine in their sequence. The N-SH2 domain of PI3K is known to recognize a specific consensus sequences that present a methionine in position +3 in respect to the phosphotyrosine (M457 in Gab2). […]

[2] = target: T2, N-SH2 domain of PI3K, L99A variant (Homo sapiens, UniProt P27986, L420A); assay: Stopped-flow binding kinetics, N-SH2 L99A
T2 construct: made in house
T2 sequence (P27986 333-428 L420A): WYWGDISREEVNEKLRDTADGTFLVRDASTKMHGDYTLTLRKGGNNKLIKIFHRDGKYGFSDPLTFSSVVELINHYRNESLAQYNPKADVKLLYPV
Protocol: as §1, §2
(§6) One of the aims of this study is to depict the molecular details of the interaction between the N-SH2 domain of PI3K and Gab2. […] To monitor binding by fluorescence, a dansyl group was added at the N-terminus of the peptide. The binding reaction was monitored by stopped-flow experiments following the change in FRET signal, taking advantage of the two Trp residues on the N-SH2 domain in positions 12 and 14 as fluorescence donor and the dansyl group on Gab2_448–460 as acceptor. […]
(§7) with kon being the slope of the line and koff the intercept with the y-axis. […] Kinetic parameters extracted from data together with the calculated changes in activation and equilibrium free energies are reported in Table 1. […]

[3] = target: T3, N-SH2 domain of PI3K, T33S variant (Homo sapiens, UniProt P27986, T354S); assay: Stopped-flow binding kinetics, N-SH2 T33S
T3 construct: made in house
T3 sequence (P27986 333-428 T354S): as the sequence (P27986 333-428 L420A) above, with T22S, A88L counted along it
Protocol: as §1, §2, §3, §4, §5

[4] = target: T4, N-SH2 domain of PI3K, V101A variant (Homo sapiens, UniProt P27986, V422A); assay: Stopped-flow binding kinetics, N-SH2 V101A
T4 construct: made in house
T4 sequence (P27986 333-428 V422A): as the sequence (P27986 333-428 L420A) above, with A88L, V90A counted along it
Protocol: as §1, §2, §3, §4, §5

[5] = target: T5, N-SH2 domain of PI3K, L59A variant (Homo sapiens, UniProt P27986, L380A); assay: Stopped-flow binding kinetics, N-SH2 L59A
T5 construct: made in house
T5 sequence (P27986 333-428 L380A): as the sequence (P27986 333-428 L420A) above, with L48A, A88L counted along it
Protocol: as §1, §2, §6, §7

[6] = target: T6, N-SH2 domain of PI3K, P74A variant (Homo sapiens, UniProt P27986, P395A); assay: Stopped-flow binding kinetics, N-SH2 P74A
T6 construct: made in house
T6 sequence (P27986 333-428 P395A): as the sequence (P27986 333-428 L420A) above, with P63A, A88L counted along it
Protocol: as §1, §2, §3, §4, §5

[7] = target: T7, N-SH2 domain of PI3K, V22A variant (Homo sapiens, UniProt P27986, V343A); assay: Stopped-flow binding kinetics, N-SH2 V22A
T7 construct: made in house
T7 sequence (P27986 333-428 V343A): as the sequence (P27986 333-428 L420A) above, with V11A, A88L counted along it
Protocol: as §1, §2, §3, §4, §5

[8] = target: T8, N-SH2 domain of PI3K, L104A variant (Homo sapiens, UniProt P27986, L425A); assay: Stopped-flow binding kinetics, N-SH2 L104A
T8 construct: made in house
T8 sequence (P27986 333-428 L425A): as the sequence (P27986 333-428 L420A) above, with A88L, L93A counted along it
Protocol: as §1, §2, §3, §4, §5

[9] = target: T9, N-SH2 domain of PI3K, V81A variant (Homo sapiens, UniProt P27986, V402A); assay: Stopped-flow binding kinetics, N-SH2 V81A
T9 construct: made in house
T9 sequence (P27986 333-428 V402A): as the sequence (P27986 333-428 L420A) above, with V70A, A88L counted along it
Protocol: as §1, §2, §3, §4, §5

[10] = target: T10, N-SH2 domain of PI3K, I17V variant (Homo sapiens, UniProt P27986, I338V); assay: Stopped-flow binding kinetics, N-SH2 I17V
T10 construct: made in house
T10 sequence (P27986 333-428 I338V): as the sequence (P27986 333-428 L420A) above, with I6V, A88L counted along it
Protocol: as §1, §2, §3, §4, §5

N-SH2 domain of PI3K, WT = target: T11, N-SH2 domain of PI3K, WT (Homo sapiens, UniProt P27986); assay: Stopped-flow binding kinetics, N-SH2 WT
T11 construct: made in house
T11 sequence (P27986 333-428 limits assumed): as the sequence (P27986 333-428 L420A) above, with A88L counted along it
Protocol: as §1, §2, §3, §4, §5

[11] = stopped-flow FRET, 1 μM dansylated peptide, 50 mM Hepes pH 7.4, 300 mM NaCl
[12] = stopped-flow kinetics, pH 7.4, 300 mM NaCl
[13] = displacement experiment, pH 7.4, 300 mM NaCl

T1 sequence (P27986 333-428 I383V): as the sequence (P27986 333-428 L420A) above, with I51V, A88L counted along it

CSCC[C@H](NC(=O)[C@@H]1CCCN1C(=O)[C@@H](NC(=O)[C@H](Cc1ccc(OP(=O)(O)O)cc1)NC(=O)[C@H](CC(N)=O)NC(=O)[C@H](CC(=O)O)NC(=O)[C@H](CCC(=O)O)NC(=O)[C@H](CO)NC(=O)[C@H](CC(N)=O)NC(=O)[C@@H](N)[C@@H](C)O)C(C)C)C(=O)N[C@@H](CC(N)=O)C(=O)N1CCC[C@H]1C(=O)NCC(=O)O [Gab2_448–460] (HELM PEPTIDE1{T.N.S.E.D.N.[O=C([C@H](Cc1ccc(OP(=O)(O)O)cc1)N[*:1])[*:2]].V.P.M.N.P.G}$$$$V2.0)
kon [1, 11]: 1.55e+07 ± 1.4e+06 M⁻¹ s⁻¹
Kd [1, 12]: 300 ± 100 nM
koff [2, 13]: 160 ± 10 s⁻¹
kon [2, 11]: 8.2e+06 ± 1.7e+06 M⁻¹ s⁻¹
Kd [2, 12]: 20000 ± 200 nM
koff [3, 13]: 3.6 ± 0.2 s⁻¹
kon [3, 11]: 2.26e+07 ± 2.4e+06 M⁻¹ s⁻¹
Kd [3, 12]: 200 ± 100 nM
koff [4, 13]: 7 ± 0.4 s⁻¹
kon [4, 11]: 1.34e+07 ± 400000 M⁻¹ s⁻¹
Kd [4, 12]: 500 ± 100 nM
koff [5, 13]: 21 ± 1 s⁻¹
kon [5, 11]: 6.7e+06 ± 1e+06 M⁻¹ s⁻¹
Kd [5, 12]: 3200 ± 200 nM
koff [6, 13]: 27 ± 1 s⁻¹
kon [6, 11]: 4.87e+07 ± 1.5e+06 M⁻¹ s⁻¹
Kd [6, 12]: 600 ± 100 nM
koff [7, 13]: 7.4 ± 0.4 s⁻¹
kon [7, 11]: 1.12e+07 ± 400000 M⁻¹ s⁻¹
Kd [7, 12]: 700 ± 100 nM
koff [8, 13]: 3.5 ± 0.2 s⁻¹
kon [8, 11]: 1.65e+07 ± 200000 M⁻¹ s⁻¹
Kd [8, 12]: 200 ± 100 nM
koff [9, 13]: 4.5 ± 0.2 s⁻¹
kon [9, 11]: 1.2e+07 ± 1.4e+06 M⁻¹ s⁻¹
Kd [9, 12]: 400 ± 100 nM
koff [10, 13]: 4.5 ± 0.2 s⁻¹
kon [10, 11]: 2.44e+07 ± 1.7e+06 M⁻¹ s⁻¹
Kd [10, 12]: 200 ± 100 nM
koff (N-SH2 domain of PI3K, WT; displacement of 1 μM complex by 50 μM non-dansylated Gab2_448–460, 50 mM Hepes pH 7.4, 300 mM NaCl): 3.9 ± 0.2 s⁻¹
Kd (N-SH2 domain of PI3K, WT; from stopped-flow kinetics, pH 7.4, 300 mM NaCl): 200 ± 100 nM
kon (N-SH2 domain of PI3K, WT; stopped-flow FRET, 1 μM dansylated peptide vs excess N-SH2, 50 mM Hepes pH 7.4, 300 mM NaCl, slope of kobs): 1.95e+07 ± 1e+06 M⁻¹ s⁻¹
